Values quoted from earlier work in US20030064122A1 (priority 2001, published 2003).

Tested on: nasal mucosa of men and women
Conditions: introduced to the nasal mucosa of men and women

Q: For `COc1cc(CNC(=O)CCCCC=CC(C)C)ccc1O` [Capsaicin, 8-Methyl-N-vanillyl-6-nonenamide], which “amount shown to induce secretion, sneezing, and/or cough” value is on record?
A: 75 micrograms
